Results on 5 compounds are retold here after patent publication US9217150B2, “NRPS-PKS gene cluster and its manipulation and utility” (SINTEF TTO AS, priority 2008, dated 2015).

The subject of this assay is strain DSM 21069 (isolate MP28-13). Put plainly: Antibiotic resistance characteristics of strain DSM 21069. The assay is classed as cell-based, Streptomyces.

As to Neomycin, the Antibiotic resistance result by setting is: (antibiotic at 5 μg/ml) “sensitive”; (antibiotic at 10 μg/ml) “sensitive”; (antibiotic at 20 μg/ml) “sensitive”; (antibiotic at 50 μg/ml) “sensitive”.

On to `CO[C@H]1/C=C/O[C@@]2(C)Oc3c(C)c(O)c4c(O)c(cc(O)c4c3C2=O)NC(=O)/C(C)=C\C=C\[C@H](C)[C@H](O)[C@@H](C)[C@@H](O)[C@@H](C)[C@H](OC(C)=O)[C@@H]1C` [Rifamycin], for which the Antibiotic resistance entry runs as follows: (antibiotic at 5 μg/ml) “resistant”; (antibiotic at 10 μg/ml) “resistant”; (antibiotic at 20 μg/ml) “resistant”; (antibiotic at 50 μg/ml) “sensitive”.

Turning to `[H]/N=C(/N)N[C@H]1[C@H](O)[C@@H](O)[C@H](O[C@@H]2O[C@@H](C)[C@](O)(C=O)[C@H]2O[C@@H]2O[C@@H](CO)[C@H](O)[C@@H](O)[C@@H]2NC)[C@@H](N/C(N)=N\[H])[C@@H]1O` [Streptomycin], the Antibiotic resistance entry by setting is: (antibiotic at 5 μg/ml) “resistant”; (antibiotic at 10 μg/ml) “resistant”; (antibiotic at 20 μg/ml) “resistant”; (antibiotic at 50 μg/ml) “resistant”.

For the compound `CN[C@@H]1[C@@H](O[C@H]2O[C@H](CO)[C@@H](N)[C@H](O)[C@H]2O)OC2C[C@@H](N)[C@@H](O[C@H]3[C@H](O)[C@@H](O)[C@H](N)C[C@@H]3N)OC2[C@@H]1O` (some centres unmarked) [Apramycin], the Antibiotic resistance result is on record as “sensitive” (antibiotic at 5 μg/ml), “sensitive” (antibiotic at 10 μg/ml), “sensitive” (antibiotic at 20 μg/ml) and “sensitive” (antibiotic at 50 μg/ml).

Regarding `C=C(NC(=O)C(=C)NC(=O)c1csc(C2=N[C@@H]3c4csc(n4)[C@H]4NC(=O)c5csc(n5)[C@H]([C@](C)(O)[C@@H](C)O)NC(=O)[C@H]5CSC(=N5)/C(=C/C)NC(=O)[C@H]([C@@H](C)O)NC(=O)c5csc(n5)[C@]3(CC2)NC(=O)[C@H](C)NC(=O)C(=C)NC(=O)[C@H](C)NC(=O)[C@H]([C@@H](C)CC)N[C@@H]2C=Cc3c([C@H](C)O)cc(nc3[C@H]2O)C(=O)O[C@@H]4C)n1)C(N)=O` [Thiostrepton], the Antibiotic resistance result (antibiotic at 5 μg/ml) is listed as “sensitive”, the Antibiotic resistance result (antibiotic at 10 μg/ml) is “sensitive”, the Antibiotic resistance entry (antibiotic at 20 μg/ml) is “sensitive” and the Antibiotic resistance entry (antibiotic at 50 μg/ml) is “sensitive”.
